The values that follow come from ChEMBL document CHEMBL5236573, “Development of benzodioxine-heteroarylpiperazines as highly potent and selective α2c antagonists” (Bioorg Med Chem Lett, 2022).

Data set [1] deals with T1, Alpha-2C adrenergic receptor (Homo sapiens) (UniProt P18825).
T1 sequence (whole entry): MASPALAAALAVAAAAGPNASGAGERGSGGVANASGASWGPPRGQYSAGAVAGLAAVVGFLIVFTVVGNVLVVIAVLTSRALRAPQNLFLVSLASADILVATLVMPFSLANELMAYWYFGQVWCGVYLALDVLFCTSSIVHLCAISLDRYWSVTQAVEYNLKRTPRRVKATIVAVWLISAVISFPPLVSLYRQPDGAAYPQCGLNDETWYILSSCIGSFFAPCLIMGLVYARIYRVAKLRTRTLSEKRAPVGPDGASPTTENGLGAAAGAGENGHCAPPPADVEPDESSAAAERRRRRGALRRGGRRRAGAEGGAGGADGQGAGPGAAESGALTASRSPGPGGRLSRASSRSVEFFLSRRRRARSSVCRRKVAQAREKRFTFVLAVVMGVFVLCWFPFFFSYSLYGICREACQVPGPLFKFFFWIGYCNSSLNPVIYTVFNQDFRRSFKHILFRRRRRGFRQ
Kind of data set: Antagonist activity at alpha2c-adrenoceptor (unknown origin) assessed as reduction in adrenaline-induced response by measuring equilibrium binding constant. To be noted: filed as antagonist.

The species named for another data set is Homo sapiens. The data set is described as follows: Selectivity index, ratio of Kb for antagonist activity at alpha2a-adrenoceptor (unknown origin) to Kb for antagonist activity at alpha2c-adrenoceptor (unknown origin).
Data set [2] concerns the target T2, Alpha-2A adrenergic receptor (Homo sapiens) (UniProt P08913).
T2 sequence (whole entry): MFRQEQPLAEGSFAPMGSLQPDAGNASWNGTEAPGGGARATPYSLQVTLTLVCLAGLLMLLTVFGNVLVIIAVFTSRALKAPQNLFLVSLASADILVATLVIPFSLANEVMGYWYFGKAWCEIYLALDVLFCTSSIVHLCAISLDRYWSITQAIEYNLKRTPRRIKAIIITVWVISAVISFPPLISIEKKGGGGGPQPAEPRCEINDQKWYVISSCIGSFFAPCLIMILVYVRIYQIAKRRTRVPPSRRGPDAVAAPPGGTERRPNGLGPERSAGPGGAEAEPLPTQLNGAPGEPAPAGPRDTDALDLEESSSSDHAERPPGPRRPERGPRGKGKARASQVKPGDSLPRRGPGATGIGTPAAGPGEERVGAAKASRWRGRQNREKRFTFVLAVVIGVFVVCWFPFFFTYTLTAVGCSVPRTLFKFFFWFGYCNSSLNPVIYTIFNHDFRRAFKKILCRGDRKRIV
The data set is described as follows: Antagonist activity at alpha2a-adrenoceptor (unknown origin) assessed as reduction in adrenaline-induced response by measuring equilibrium binding constant. To be noted: filed as antagonist.

A short description of data set [3]: Unbound brain-to-plasma concentration ratio in rat at 1 mg/kg, po. The data set is classed as ADME, organism-based. The note with it: brain and plasma, read-out: K(p,uu,brain).
Data set [4] is described as follows: Permeability across basolateral to apical side in human Caco-2 cells. It counts as ADME, cell-based. To be noted: read-out: permeability. (In general: Passage across Caco-2 layers is used to estimate intestinal permeability.)
A short description of data set [5]: Unbound fraction in rat plasma at 1 mg/kg, po. It counts as ADME, organism-based.
A short description of data set [6]: Solubility of the compound in pH 7.4 buffer. It counts as physicochemical.
The nature of data set [7]: Tmax in rat brain at 1 mg/kg, po. The data set is classed as ADME, organism-based.
Data set [8] in a line: AUC (0 to 6 hrs) in rat brain at 1 mg/kg, po. It counts as ADME, organism-based. Further details: dose 1 mg/kg, route po.
Data set [9] can be described thus: Metabolic stability in human hepatocytes assessed as clearance per 10^6 cells at 1 uM. To be noted: read-out: CLH. It counts as ADME, cell-based, Hepatocyte.
The nature of data set [10]: Permeability across apical to basolateral side in human Caco-2 cells. The data set is classed as ADME, cell-based. The note with it: read-out: permeability.
The nature of data set [11]: Metabolic stability in rat hepatocytes assessed as clearance per 10^6 cells at 1 uM. It counts as ADME, cell-based, Hepatocyte. The note with it: read-out: CLH.
The nature of data set [12]: Cmax in rat plasma at 1 mg/kg, po. The data set is classed as ADME, organism-based. Further details: dose 1 mg/kg, route po.
A short description of data set [13]: AUC (0 to 6 hrs) in rat plasma at 1 mg/kg, po. The data set is classed as ADME, organism-based. The arrangement: dose 1 mg/kg, route po.
The nature of data set [14]: Unbound Cmax in rat plasma at 1 mg/kg, po by rapid equilibrium dialysis method. The data set is classed as ADME, organism-based. To be noted: in vivo.
Data set [15] in a line: Lipophilicity, logD of the compound. The data set is classed as physicochemical. The note with it: octanol/water.
A short description of data set [16]: Unbound Cmax in rat brain at 1 mg/kg, po by rapid equilibrium dialysis method. The data set is classed as ADME, organism-based. To be noted: in vivo. Background: In equilibrium dialysis only unbound substance equilibrates across the membrane.
A short description of data set [17]: Unbound fraction in rat brain at 1 mg/kg, po. It counts as ADME, organism-based.
A short description of data set [18]: Efflux ratio of permeability across basolateral to apical side over apical to basolateral side in human Caco-2 cells. The data set is classed as ADME, cell-based.
The nature of data set [19]: Cmax in rat brain at 1 mg/kg, po. The data set is classed as ADME, organism-based. Further details: dose 1 mg/kg, route po.
Data set [20] is described as follows: Tmax in rat plasma at 1 mg/kg, po. The data set is classed as ADME, organism-based.

The structures appear in SMILES notation. Converted amounts (≈) assume the structure as drawn.

As to `O=C1CCCN1c1cccnc1N1CCN(C[C@H]2COc3ccccc3O2)CC1`, the Kb turned out to be 0.01 nM in data set [1] and 44.9 nM in [2]. Besides, in the data set filed under Homo sapiens, the Ratio worked out at 4490.
Take `O=C1CCCN1c1nsnc1N1CCN(C[C@H]2COc3ccccc3O2)CC1`: the Kp uu in data set [3] stood at 0.45. Also, the Papp B→A in data set [4] is 44.3 ×10⁻⁶ cm/s. Further, the Kb was found to be 0.05 nM in data set [1] and 282 nM in data set [2]. For the same molecule, the fraction unbound in data set [5] amounted to 0.185; in data set [17], 0.104. The molecule further displayed a solubility in data set [6] of 822 µM (≈ 330 µg/mL). Besides, the Tmax in data set [7] and in data set [20] was 15 min throughout. For the same molecule, the AUC(0-t) in data set [8] was 140 ng·h/mL; in data set [13], 189 ng·h/mL. The hepatocyte CLint at 1 µM was determined as 8.2 µL/min/1e6 cells in data set [9] and 16.2 µL/min/1e6 cells in [11]. In data set [10], the Papp A→B was 73.6 ×10⁻⁶ cm/s. Further, the Ratio in the data set filed under Homo sapiens is 5380. For the same molecule, the Cmax in data set [12] amounted to 113 ng/mL; in data set [19], 101 ng/g. Moreover, the fCmax in [14] is on record as 52 nM; in data set [16], 26 nM. Also, the logD in [15] stood at 2.2. In data set [18], the efflux ratio is 0.6.
`CC1CCN(c2nsnc2N2CCN(C[C@H]3COc4ccccc4O3)CC2)C1=O` (stereo not given in full): the Kb in [1] came out at 0.04 nM; in data set [2], 449 nM. The molecule further registered a solubility in data set [6] of 395 µM (≈ 164 µg/mL). The hepatocyte CLint at 1 µM in data set [9] was found to be 6.3 µL/min/1e6 cells; in data set [11], 73.7 µL/min/1e6 cells. In the data set listed under Homo sapiens, the Ratio was determined as 11200. For the same molecule, in data set [15], the pH-dependent lipophilicity (logD) is 2.8.
As for `CN(C)C(=O)c1nsnc1N1CCN(C[C@H]2COc3ccccc3O2)CC1`, the Kb in [1] was found to be 0.09 nM; in [2], 449 nM. In data set [6], this molecule had a solubility of 719 µM (≈ 280 µg/mL). Moreover, the hepatocyte CLint at 1 µM was determined as 1.75 µL/min/1e6 cells in data set [9] and 30 µL/min/1e6 cells in data set [11]. Moreover, the Ratio in the data set filed under Homo sapiens is 4990. This molecule also had a logD in data set [15] of 2.5.
With `O=C1CCCN1c1ncsc1N1CCN(C[C@H]2COc3ccccc3O2)CC1`, in data set [4], the Papp B→A was determined as 24.3 ×10⁻⁶ cm/s. The Kb was found to be 0.04 nM in [1] and 317 nM in data set [2]. The solubility in [6] is 1130 µM (≈ 451 µg/mL). Also, the hepatocyte CLint at 1 µM came to 3.6 µL/min/1e6 cells in data set [9] and 5 µL/min/1e6 cells in data set [11]. In data set [10], the Papp A→B is 42.4 ×10⁻⁶ cm/s. Besides, in the data set filed under Homo sapiens, the Ratio was 7940. The same molecule displayed a logD in data set [15] of 1.9. Further, the efflux ratio in data set [18] worked out at 0.6.
With `COc1scnc1N1CCN(C[C@H]2COc3ccccc3O2)CC1`, the antagonist equilibrium constant (Kb) in data set [1] was 0.01 nM; in data set [2], 88.3 nM. For the same molecule, in [6], the solubility was found to be 445 µM (≈ 155 µg/mL). Also, the hepatocyte CLint at 1 µM in data set [9] turned out to be 14.3 µL/min/1e6 cells; in [11], 54.4 µL/min/1e6 cells. In addition, the Ratio in the data set filed under Homo sapiens was determined as 8830. This molecule returned a logD in [15] of 2.3.
Regarding `c1ccc2c(c1)OC[C@H](CN1CCN(c3nsnc3Nc3ccncn3)CC1)O2`, the Kb amounted to 0.01 nM in data set [1] and 459 nM in data set [2]. Also, the hepatocyte CLint at 1 µM was 14.2 µL/min/1e6 cells in data set [9] and 29.3 µL/min/1e6 cells in data set [11]. Further, the Ratio in the data set listed under Homo sapiens stood at 45900.
Turning to `CN1CCN(c2nsnc2N2CCN(C[C@H]3COc4ccccc4O3)CC2)C1=O`, the Kb worked out at 108 nM in data set [1] and 449 nM in data set [2]. For the same molecule, in the data set filed under Homo sapiens, the Ratio was determined as 4.15.
Consider `CC1(C)CCN(c2nsnc2N2CCN(C[C@H]3COc4ccccc4O3)CC2)C1=O`, for which the Kb in data set [1] is 0.01 nM; in [2], 449 nM. This molecule also displayed a solubility in data set [6] of 133 µM (≈ 57.1 µg/mL). Further, the hepatocyte CLint at 1 µM in data set [9] was 18.1 µL/min/1e6 cells; in data set [11], 128 µL/min/1e6 cells. Further, the Ratio in the data set filed under Homo sapiens came out at 44900. In data set [15], this molecule displayed a logD of 3.1.
`COCc1cccnc1N1CCN(C[C@H]2COc3ccccc3O2)CC1` [ORM-13070]: the Kb in data set [1] came to 0.03 nM; in [2], 130 nM. Besides, the solubility in data set [6] came to 176 µM (≈ 62.6 µg/mL). The Ratio in the data set listed under Homo sapiens is 4330. Moreover, the logD in [15] came to 3.3.
Turning to `O=C1NCCN1c1nsnc1N1CCN(C[C@H]2COc3ccccc3O2)CC1`, the results for the Kb in data set [1] and in data set [2] were 0.076 nM and 449 nM, respectively. The hepatocyte CLint at 1 µM in [9] and in [11] was 1.8 µL/min/1e6 cells in each case. In addition, the Ratio in the data set listed under Homo sapiens was determined as 5930.
As to `Cc1c(N2CCNC2=O)c(N2CCN(C[C@H]3COc4ccccc4O3)CC2)nn1C`, the Papp B→A in [4] came to 21.4 ×10⁻⁶ cm/s. Also, the Kb in data set [1] came out at 0.06 nM; in data set [2], 449 nM. The same molecule had a solubility in [6] of 114 µM (≈ 47 µg/mL). For the same molecule, the hepatocyte CLint at 1 µM in data set [9] and in data set [11] was 1.8 µL/min/1e6 cells in each case. The Papp A→B in [10] is 2.9 ×10⁻⁶ cm/s. Also, in the data set listed under Homo sapiens, the Ratio amounted to 7480. In [18], the efflux ratio was found to be 7.5.
For the molecule `Oc1cccc([C@H]2CCCN(C[C@H]3COc4ccccc4O3)C2)c1`, the fraction unbound in data set [5] and in data set [17] was less than 0.01 each time. In addition, the results for the AUC(0-t) in data set [8] and in data set [13] were 14 ng·h/mL and 9 ng·h/mL, respectively. The fCmax was less than 0.06 nM in [14] and less than 0.09 nM in data set [16].

As usually defined, the Kb is the affinity of an antagonist, worked out from how it opposes an agonist. A word on the fraction unbound: it is free concentration divided by total concentration. Low values mean little free substance, high ones much free substance. The solubility is the concentration that dissolves in the medium under given conditions. Read a high solubility as much dissolved substance. Usually Tmax stands for the time at which the peak concentration occurs. The AUC(0-t) is exposure summed from dosing to a finite time, without extrapolation to infinity. What is called Cmax is the maximum level reached in the sampled fluid or tissue. The term logD denotes the decadic logarithm of the distribution of all forms, ionised or not, between an organic phase and buffer at a given pH. The low end stands for lower lipophilicity, the high end for higher lipophilicity. The term efflux ratio denotes the permeability from basolateral to apical divided by that in the opposite direction, in the common usage.
